Where a name gives a salt, the structure may show the parent alone.
test system: recombinant NL4-3 virus (Renilla luciferase in nef, Gag P373S; NLRluc) in MT-2 cells; assay: whole plant or invertebrate; type: cell-based, HIV; conditions: Renilla, NL43
Outline: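 Cells grown in serum-supplemented RPMI were exposed to graded inhibitor concentrations during a 4-5 day infection. Antiviral effect was then derived from luminescence after adding a combined lysis and dual-luciferase substrate mixture to each well.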

| Compound | EC50 |
| --- | --- |
| C=C(C)[C@@H]1CC[C@]2(NCCN3CCC(C(=O)N(C)C)CC3)CC[C@]3(C)[C@H](CC[C@@H]4[C@@]5(C)CC=C(c6ccc(C(=O)O)cc6)C(C)(C)[C@@H]5CC[C@]43C)[C@@H]12 [Example 171, 4-((1R,3aS,5aR,5bR,7aR,11aS,11bR,13aR,13bR)-3a-(2-(4-(dimethylcarbamoyl)piperidin-1-yl)ethylamino)-5a,5b,8,8,11a-pentamethyl-1-(prop-1-en-2-yl)-2,3,3a,4,5,5a,5b,6,7,7a,8,11,11a,11b,12,13,13a,13b-octadecahydro-1H-cyclopenta[a]chrysen-9-yl)benzoic acid] | < 100 nM |
| C=C(C)[C@@H]1CC[C@]2(N3CC3)CC[C@]3(C)[C@H](CC[C@@H]4[C@@]5(C)CC=C(c6ccc(C(=O)O)cc6)C(C)(C)[C@@H]5CC[C@]43C)[C@@H]12 [Example 173, 4-((1R,3aS,5aR,5bR,7aR,11aS,11bR,13bR)-3a-(aziridin-1-yl)-5a,5b,8,8,11a-pentamethyl-1-(prop-1-en-2-yl)-2,3,3a,4,5,5a,5b,6,7,7a,8,11,11a,11b,12,13,13a,13b-octadecahydro-1H-cyclopenta[a]chrysen-9-yl)benzoic acid] | < 100 nM |

same assay, conditions: Renilla, NL43, luciferase activity in cells infected for 4-5 days with NLRluc recombinants, serial dilutions of inhibitor; class symbols (key in Table 1); read-out: EC50

| Compound | EC50 |
| --- | --- |
| C=C(C)[C@@H]1CC[C@]2(NCCCN3CCOCC3)CC[C@]3(C)[C@H](CC[C@@H]4[C@@]5(C)CC=C(c6ccc(C(=O)O)cc6)C(C)(C)[C@@H]5CC[C@]43C)[C@@H]12 [Example 165, 4-((1R,3aS,5aR,5bR,7aR,11aS,11bR,13aR,13bR)-5a,5b,8,8,11a-pentamethyl-3a-(3-morpholinopropylamino)-1-(prop-1-en-2-yl)-2,3,3a,4,5,5a,5b,6,7,7a,8,11,11a,11b,12,13,13a,13b-octadecahydro-1H-cyclopenta[a]chrysen-9-yl)benzoic acid] | < 100 nM |
| C=C(C)[C@@H]1CC[C@]2(NCCc3ccncc3)CC[C@]3(C)[C@H](CC[C@@H]4[C@@]5(C)CC=C(c6ccc(C(=O)O)cc6)C(C)(C)[C@@H]5CC[C@]43C)[C@@H]12 [Example 166, 4-((1R,3aS,5aR,5bR,7aR,11aS,11bR,13aR,13bR)-5a,5b,8,8,11a-pentamethyl-1-(prop-1-en-2-yl)-3a-((2-(pyridin-4-yl)ethyl)amino)-2,3,3a,4,5,5a,5b,6,7,7a,8,11,11a,11b,12,13,13a,13b-octadecahydro-1H-cyclopenta[a]chrysen-9-yl)benzoic acid] | < 100 nM |
| C=C(C)[C@@H]1CC[C@]2(NCCN3CCSCC3)CC[C@]3(C)[C@H](CC[C@@H]4[C@@]5(C)CC=C(c6ccc(C(=O)O)cc6)C(C)(C)[C@@H]5CC[C@]43C)[C@@H]12 [Example 168, 4-((1R,3aS,5aR,5bR,7aR,11aS,11bR,13aR,13bR)-5a,5b,8,8,11a-pentamethyl-1-(prop-1-en-2-yl)-3a-(2-thiomorpholinoethylamino)-2,3,3a,4,5,5a,5b,6,7,7a,8,11,11a,11b,12,13,13a,13b-octadecahydro-1H-cyclopenta[a]chrysen-9-yl)benzoic acid] | < 100 nM |
| C=C(C)[C@@H]1CC[C@]2(NCCCN(C)C)CC[C@]3(C)[C@H](CC[C@@H]4[C@@]5(C)CC=C(c6ccc(C(=O)O)cc6)C(C)(C)[C@@H]5CC[C@]43C)[C@@H]12 [Example 169, 4-((1R,3aS,5aR,5bR,7aR,11aS,11bR,13aR,13bR)-3a-(3-(dimethylamino)propylamino)-5a,5b,8,8,11a-pentamethyl-1-(prop-1-en-2-yl)-2,3,3a,4,5,5a,5b,6,7,7a,8,11,11a,11b,12,13,13a,13b-octadecahydro-1H-cyclopenta[a]chrysen-9-yl)benzoic acid] | < 100 nM |
| C=C(C)[C@@H]1CC[C@]2(NCCN3CCC(C(=O)O)CC3)CC[C@]3(C)[C@H](CC[C@@H]4[C@@]5(C)CC=C(c6ccc(C(=O)O)cc6)C(C)(C)[C@@H]5CC[C@]43C)[C@@H]12 [Example 170, 1-(2-(((1R,3aS,5aR,5bR,7aR,11aS,11bR,13aR,13bR)-9-(4-carboxyphenyl)-5a,5b,8,8,11a-pentamethyl-1-(prop-1-en-2-yl)-2,3,3a,4,5,5a,5b,6,7,7a,8,11,11a,11b,12,13,13a,13b-octadecahydro-1H-cyclopenta[a]chrysen-3a-yl)amino)ethyl)piperidine-4-carboxylic acid] | < 100 nM |
| C=C(C)[C@@H]1CC[C@]2(NCCN3CCC(F)(F)CC3)CC[C@]3(C)[C@H](CC[C@@H]4[C@@]5(C)CC=C(c6ccc(C(=O)O)cc6)C(C)(C)[C@@H]5CC[C@]43C)[C@@H]12 [Example 172] | < 100 nM |
| C=C(C)[C@@H]1CC[C@]2(N(CCN3CCS(=O)(=O)CC3)C(C)=O)CC[C@]3(C)[C@H](CC[C@@H]4[C@@]5(C)CC=C(c6ccc(C(=O)O)cc6)C(C)(C)[C@@H]5CC[C@]43C)[C@@H]12 [Example 178, 4-((1R,3aS,5aR,5bR,7aR,11aS,11bR,13aR,13bR)-3a-(acetyl(2-(1,1-dioxido-4-thiomorpholinyl)ethyl)amino)-1-isopropenyl-5a,5b,8,8,11a-pentamethyl-2,3,3a,4,5,5a,5b,6,7,7a,8,11,11a,11b,12,13,13a,13b-octadecahydro-1H-cyclopenta[a]chrysen-9-yl)benzoic acid] | < 100 nM |
| C=C(C)[C@@H]1CC[C@]2(NCCF)CC[C@]3(C)[C@H](CC[C@@H]4[C@@]5(C)CC=C(c6ccc(C(=O)O)cc6)C(C)(C)[C@@H]5CC[C@]43C)[C@@H]12 [Example 179, 4-((1R,3aS,5aR,5bR,7aR,11aS,11bR,13aR,13bR)-3a-((2-fluoroethyl)amino)-5a,5b,8,8,11a-pentamethyl-1-(prop-1-en-2-yl)-2,3,3a,4,5,5a,5b,6,7,7a,8,11,11a,11b,12,13,13a,13b-octadecahydro-1H-cyclopenta[a]chrysen-9-yl)benzoic acid] | < 100 nM |
| C=C(C)[C@@H]1CC[C@]2(NCC)CC[C@]3(C)[C@H](CC[C@@H]4[C@@]5(C)CC=C(c6ccc(C(=O)O)cc6)C(C)(C)[C@@H]5CC[C@]43C)[C@@H]12 [Example 180, 4-((1R,3aS,5aR,5bR,7aR,11aS,11bR,13aR,13bR)-3a-(ethylamino)-5a,5b,8,8,11a-pentamethyl-1-(prop-1-en-2-yl)-2,3,3a,4,5,5a,5b,6,7,7a,8,11,11a,11b,12,13,13a,13b-octadecahydro-1H-cyclopenta[a]chrysen-9-yl)benzoic acid] | < 100 nM |
| C=C(C)[C@@H]1CC[C@]2(NCC(C)C)CC[C@]3(C)[C@H](CC[C@@H]4[C@@]5(C)CC=C(c6ccc(C(=O)O)cc6)C(C)(C)[C@@H]5CC[C@]43C)[C@@H]12 [Example 181, 4-((1R,3aS,5aR,5bR,7aR,11aS,11bR,13aR,13bR)-3a-(isobutylamino)-5a,5b,8,8,11a-pentamethyl-1-(prop-1-en-2-yl)-2,3,3a,4,5,5a,5b,6,7,7a,8,11,11a,11b,12,13,13a,13b-octadecahydro-1H-cyclopenta[a]chrysen-9-yl)benzoic acid] | < 100 nM |

same assay, conditions: Renilla, NL43, luciferase activity in cells infected for 4-5 days with NLRluc recombinants, serial dilutions of inhibitor; numeric values; read-out: EC50

| Compound | EC50 |
| --- | --- |
| C=C(C)[C@@H]1CC[C@]2(N(CCN3CCCC3)CCN3CCCC3)CC[C@]3(C)[C@H](CC[C@@H]4[C@@]5(C)CC=C(c6ccc(C(=O)O)cc6)C(C)(C)[C@@H]5CC[C@]43C)[C@@H]12 [Example 167, 4-((1R,3aS,5aR,5bR,7aR,11aS,11bR,13aR,13bR)-3a-(bis(2-(pyrrolidin-1-yl)ethyl)amino)-5a,5b,8,8,11a-pentamethyl-1-(prop-1-en-2-yl)-2,3,3a,4,5,5a,5b,6,7,7a,8,11,11a,11b,12,13,13a,13b-octadecahydro-1H-cyclopenta[a]chrysen-9-yl)benzoic acid] | 4 nM |
| C=C(C)[C@@H]1CC[C@]2(NCC3CCCN(C(=O)OC(C)(C)C)C3)CC[C@]3(C)[C@H](CC[C@@H]4[C@@]5(C)CC=C(c6ccc(C(=O)O)cc6)C(C)(C)[C@@H]5CC[C@]43C)[C@@H]12 (stereo partly drawn) [Example 174, 4-((1R,3aS,5aR,5bR,7aR,11aS,11bR,13aR,13bR)-3a-((1-(tert-butoxycarbonyl)piperidin-3-yl)methylamino)-5a,5b,8,8,11a-pentamethyl-1-(prop-1-en-2-yl)-2,3,3a,4,5,5a,5b,6,7,7a,8,11,11a,11b,12,13,13a,13b-octadecahydro-1H-cyclopenta[a]chrysen-9-yl)benzoic acid] | 300 nM |
| C=C(C)[C@@H]1CC[C@]2(NCC3CCCNC3)CC[C@]3(C)[C@H](CC[C@@H]4[C@@]5(C)CC=C(c6ccc(C(=O)O)cc6)C(C)(C)[C@@H]5CC[C@]43C)[C@@H]12 (stereo partly drawn) [Example 175, 4-((1R,3aS,5aR,5bR,7aR,11aS,11bR,13aR,13bR)-5a,5b,8,8,11a-pentamethyl-3a-(piperidin-3-ylmethylamino)-1-(prop-1-en-2-yl)-2,3,3a,4,5,5a,5b,6,7,7a,8,11,11a,11b,12,13,13a,13b-octadecahydro-1H-cyclopenta[a]chrysen-9-yl)benzoic acid] | 10 nM |
| C=C(C)[C@@H]1CC[C@]2(N(C)C)CC[C@]3(C)[C@H](CC[C@@H]4[C@@]5(C)CC=C(c6ccc(C(=O)O)cc6)C(C)(C)[C@@H]5CC[C@]43C)[C@@H]12 [Example 177, 4-((1R,3aS,5aR,5bR,7aR,11aS,11bR,13aR,13bR)-3a-(dimethylamino)-5a,5b,8,8,11a-pentamethyl-1-(prop-1-en-2-yl)-2,3,3a,4,5,5a,5b,6,7,7a,8,11,11a,11b,12,13,13a,13b-octadecahydro-1H-cyclopenta[a]chrysen-9-yl)benzoic acid] | 9 nM |

same assay, conditions: luciferase activity in cells infected for 4-5 days with NLRluc recombinants, serial dilutions of inhibitor; class symbols (key in Table 1); read-out: EC50

| Compound | EC50 |
| --- | --- |
| C=C(C)[C@@H]1CC[C@]2(NC)CC[C@]3(C)[C@H](CC[C@@H]4[C@@]5(C)CC=C(c6ccc(C(=O)O)cc6)C(C)(C)[C@@H]5CC[C@]43C)[C@@H]12 [Example 176, 4-((1R,3aS,5aR,5bR,7aR,11aS,11bR,13aR,13bR)-5a,5b,8,8,11a-pentamethyl-3a-(methylamino)-1-(prop-1-en-2-yl)-2,3,3a,4,5,5a,5b,6,7,7a,8,11,11a,11b,12,13,13a,13b-octadecahydro-1H-cyclopenta[a]chrysen-9-yl)benzoic acid, HCl] | < 100 nM |
